These results are taken from US10584117B2, “1,3,4-oxadiazole amide derivative compound as histone deacetylase 6 inhibitor, and pharmaceutical composition containing same” (Chong Kun Dang Pharmaceutical Corp., priority 2015, dated 2020).

pIC50: −log10 of the molar value.

In the assay the target is T1, human recombinant HDAC6 (Homo sapiens, UniProt Q9UBN7).
T1 construct: purchased Calbiochem 382180
T1 sequence (Q9UBN7 1-1215): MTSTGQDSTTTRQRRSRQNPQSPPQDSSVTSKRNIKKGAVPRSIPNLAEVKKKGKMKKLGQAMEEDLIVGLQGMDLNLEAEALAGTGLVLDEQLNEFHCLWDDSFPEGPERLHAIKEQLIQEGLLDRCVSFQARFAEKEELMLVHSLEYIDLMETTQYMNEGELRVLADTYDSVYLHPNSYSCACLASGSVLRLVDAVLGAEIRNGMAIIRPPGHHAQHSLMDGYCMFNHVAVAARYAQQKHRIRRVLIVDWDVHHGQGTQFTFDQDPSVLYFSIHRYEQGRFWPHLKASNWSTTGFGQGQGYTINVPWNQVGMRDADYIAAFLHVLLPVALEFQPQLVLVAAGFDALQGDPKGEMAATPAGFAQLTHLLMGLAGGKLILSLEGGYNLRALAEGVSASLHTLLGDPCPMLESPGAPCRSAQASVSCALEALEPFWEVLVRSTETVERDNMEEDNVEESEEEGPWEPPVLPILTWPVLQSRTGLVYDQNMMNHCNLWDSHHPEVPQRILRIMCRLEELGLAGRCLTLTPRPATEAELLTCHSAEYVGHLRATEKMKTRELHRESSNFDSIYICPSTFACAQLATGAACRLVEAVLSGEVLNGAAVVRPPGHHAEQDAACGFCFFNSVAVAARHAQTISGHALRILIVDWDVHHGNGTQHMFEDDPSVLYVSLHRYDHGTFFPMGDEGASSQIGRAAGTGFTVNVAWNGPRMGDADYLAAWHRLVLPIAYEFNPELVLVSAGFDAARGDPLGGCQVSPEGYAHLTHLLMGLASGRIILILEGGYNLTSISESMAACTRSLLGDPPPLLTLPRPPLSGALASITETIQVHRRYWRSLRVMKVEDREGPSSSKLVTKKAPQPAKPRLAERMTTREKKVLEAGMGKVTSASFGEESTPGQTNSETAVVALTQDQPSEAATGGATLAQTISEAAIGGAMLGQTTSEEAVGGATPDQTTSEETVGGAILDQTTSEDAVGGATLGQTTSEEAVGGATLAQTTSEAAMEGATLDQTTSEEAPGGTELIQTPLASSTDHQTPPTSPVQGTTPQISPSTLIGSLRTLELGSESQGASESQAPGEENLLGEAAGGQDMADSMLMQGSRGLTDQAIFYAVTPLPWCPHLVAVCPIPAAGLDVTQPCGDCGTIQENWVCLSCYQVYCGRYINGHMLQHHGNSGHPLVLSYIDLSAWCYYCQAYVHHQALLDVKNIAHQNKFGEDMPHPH
Put plainly: HDAC enzyme activity inhibition assay (HDAC6, fluorimetric kit). To be noted: for HDAC6 selectivity (fold): HDAC6 versus HDAC1; for pIC50: same protocol as the HDAC1 test. It counts as biochemical. How it is done:
In order to examine the HDAC6 selectivity of the compounds of formula I of the present invention by HDAC1 and HDAC6 enzymatic activity inhibition assays, an experiment was performed using a conventional substance as a control. HDAC enzyme activity was measured using a HDAC Fluorimetric Drug Discovery Kit (BML-AK511, 516) from Enzo Life Science. For the HDAC1 enzyme activity test, human recombinant HDAC1 (BML-SE456) was used as an enzyme source, and Fluor de Lys®-“SIRT1 (BNL-KI177) was used as a substrate. A 5-fold dilution of the compound was seeded into a 96-well plate, and then 0.3 μg of the enzyme and 10 μM of the substrate were added to each well of the plate and allowed to react at 30° C. for 60 minutes. Then, Fluor de Lys®-Developer II (BML-KI176) was added thereto and allowed to react for 30 minutes, after which the fluorescence value (Ex 360, Em 460) was measured using a multi-plate reader (Flexstation 3, Molecular Device). The HDAC6 enzyme was tested using human recombinant HDAC6 (382180) from Calbiochem, according to the same protocol as the HDAC1 enzyme activity test method. Based on the resulting values, each IC50 value was calculated using GraphPad Prism4.0 program.

Broadly, the pIC50 is −log10 of the IC50, conventionally taken in molar units. Take `CC(=O)N1CCC(C(=O)N(Cc2ccc(-c3nnc(C(F)(F)F)o3)cc2)c2ccccc2)CC1` [Compound 11161, 1-acetyl-N-phenyl-N-(4-(5-(trifluoromethyl)-1,3,4-oxadiazol-2-yl)benzyl)piperidine-4-carboxamide]: the “HDAC6 selectivity (fold)” value came to 204 fold and the pIC50 was 6.31.

Turning to `CCC(=O)N1CCC(C(=O)N(Cc2ccc(-c3nnc(C(F)(F)F)o3)cc2)c2ccccc2)CC1` [Compound 11162, N-phenyl-1-propionyl-N-(4-(5-(trifluoromethyl)-1,3,4-oxadiazol-2-yl)benzyl)piperidine-4-carboxamide], the “HDAC6 selectivity (fold)” value was 483 fold and the pIC50 was 6.68.

For the compound `CC(C)C(=O)N1CCC(C(=O)N(Cc2ccc(-c3nnc(C(F)(F)F)o3)cc2)c2ccccc2)CC1` [Compound 11163, 1-isobutyryl-N-phenyl-N-(4-(5-(trifluoromethyl)-1,3,4-oxadiazol-2-yl)benzyl)piperidine-4-carboxamide], the “HDAC6 selectivity (fold)” value amounted to 452 fold and the pIC50 is 6.66.

For the compound `O=C(C1CCN(C(=O)C(F)(F)F)CC1)N(Cc1ccc(-c2nnc(C(F)(F)F)o2)cc1)c1ccccc1` [Compound 11164, N-phenyl-1-(2,2,2-trifluoroacetyl)-N-(4-(5-(trifluoromethyl)-1,3,4-oxadiazol-2-yl)benzyl)piperidine-4-carboxamide], the “HDAC6 selectivity (fold)” value was found to be 298 fold and the pIC50 is 6.47.

As for `CS(=O)(=O)N1CCC(C(=O)N(Cc2ccc(-c3nnc(C(F)(F)F)o3)cc2)c2ccccc2)CC1` [Compound 11165, 1-(methylsulfonyl)-N-phenyl-N-(4-(5-(trifluoromethyl)-1,3,4-oxadiazol-2-yl)benzyl)piperidine-4-carboxamide], the “HDAC6 selectivity (fold)” value is 800 fold and the pIC50 is 6.90.

As to `CC(=O)N1CC(C(=O)N(Cc2ccc(-c3nnc(C(F)(F)F)o3)cc2)c2ccccc2)C1` [Compound 11187, N1-acetyl-N-phenyl-N-(4-(5-(trifluoromethyl)-1,3,4-oxadiazol-2-yl)benzyl)azetidine-3-carboxamide], the “HDAC6 selectivity (fold)” value was 144 fold and the pIC50 was 6.72.

With `O=C(c1ccncc1)N(Cc1ccc(-c2nnc(C(F)(F)F)o2)cc1F)c1cccc(F)c1` [Compound 11188, N-(2-fluoro-4-(5-(trifluoromethyl)-1,3,4-oxadiazol-2-yl)benzyl)-N-(3-fluorophenyl)isonicotinamide], the “HDAC6 selectivity (fold)” value is 935 fold and the pIC50 is 6.97.

Take `O=C(c1ccncc1)N(Cc1ccc(-c2nnc(C(F)F)o2)cc1F)c1cccc(F)c1` [Compound 11189, N-(4-(5-(difluoromethyl)-1,3,4-oxadiazol-2-yl)-2-fluorobenzyl)-N-(3-fluorophenyl)isonicotinamide]: the “HDAC6 selectivity (fold)” value is listed as 2564 fold and the pIC50 was 7.41.

With `CN1CCC(C(=O)N(Cc2ccc(-c3nnc(C(F)(F)F)o3)cc2F)c2ccccc2)CC1` [Compound 11200, N-(2-fluoro-4-(5-(trifluoromethyl)-1,3,4-oxadiazol-2-yl)benzyl)-1-methyl-N-phenylpiperidine-4-carboxamide], the “HDAC6 selectivity (fold)” value is recorded as 763 fold and the pIC50 is 6.88.

With `CCN1CCC(C(=O)N(Cc2ccc(-c3nnc(C(F)(F)F)o3)cc2F)c2ccccc2)CC1` [Compound 11201], the “HDAC6 selectivity (fold)” value stood at 877 fold and the pIC50 was 6.94.

Regarding `CC(C)N1CCC(C(=O)N(Cc2ccc(-c3nnc(C(F)(F)F)o3)cc2F)c2ccccc2)CC1` [Compound 11202, N-(2-fluoro-4-(5-(trifluoromethyl)-1,3,4-oxadiazol-2-yl)benzyl)-1-isopropyl-N-phenylpiperidine-4-carboxamide], the “HDAC6 selectivity (fold)” value turned out to be 735 fold and the pIC50 is 6.87.

Regarding `CC(=O)N1CCC(C(=O)N(Cc2ccc(-c3nnc(C(F)(F)F)o3)cc2F)c2ccccc2)CC1` [Compound 11203, 1-acetyl-N-(2-fluoro-4-(5-(trifluoromethyl)-1,3,4-oxadiazol-2-yl)benzyl)-N-phenylpiperidine-4-carboxamide], the “HDAC6 selectivity (fold)” value is listed as 694 fold and the pIC50 was 6.84.

Take `CCC(=O)N1CCC(C(=O)N(Cc2ccc(-c3nnc(C(F)(F)F)o3)cc2F)c2ccccc2)CC1` [Compound 11204, N-(2-fluoro-4-(5-(trifluoromethyl)-1,3,4-oxadiazol-2-yl)benzyl)-N-phenyl-1-propionylpiperidine-4-carboxamide]: the “HDAC6 selectivity (fold)” value is on record as 917 fold and the negative logarithm of the IC50 (pIC50) was 6.96.

In the case of `CC(C)C(=O)N1CCC(C(=O)N(Cc2ccc(-c3nnc(C(F)(F)F)o3)cc2F)c2ccccc2)CC1` [Compound 11205, N-(2-fluoro-4-(5-(trifluoromethyl)-1,3,4-oxadiazol-2-yl)benzyl)-1-isobutyryl-N-phenylpiperidine-4-carboxamide], the “HDAC6 selectivity (fold)” value is 332 fold and the pIC50 is 6.52.

As to `O=C(C1CCN(C(=O)C(F)(F)F)CC1)N(Cc1ccc(-c2nnc(C(F)(F)F)o2)cc1F)c1ccccc1` [Compound 11206, N-(2-fluoro-4-(5-(trifluoromethyl)-1,3,4-oxadiazol-2-yl)benzyl)-N-phenyl-1-(2,2,2-trifluoroacetyl)piperidine-4-carboxamide], the “HDAC6 selectivity (fold)” value worked out at 269 fold and the pIC50 was 6.43.

For `CS(=O)(=O)N1CCC(C(=O)N(Cc2ccc(-c3nnc(C(F)(F)F)o3)cc2F)c2ccccc2)CC1` [Compound 11207, N-(2-fluoro-4-(5-(trifluoromethyl)-1,3,4-oxadiazol-2-yl)benzyl)-1-(methylsulfonyl)-N-phenylpiperidine-4-carboxamide], the “HDAC6 selectivity (fold)” value worked out at 813 fold and the pIC50 is 6.91.

With `CN1CCC(C(=O)N(Cc2ccc(-c3nnc(C(F)F)o3)cc2F)c2ccccc2)CC1` [Compound 11208, N-(4-(5-(difluoromethyl)-1,3,4-oxadiazol-2-yl)-2-fluorobenzyl)-1-methyl-N-phenylpiperidine-4-carboxamide], the “HDAC6 selectivity (fold)” value stood at 1136 fold and the pIC50 was 7.06.

For `CCN1CCC(C(=O)N(Cc2ccc(-c3nnc(C(F)F)o3)cc2F)c2ccccc2)CC1` [Compound 11209, N-(4-(5-(difluoromethyl)-1,3,4-oxadiazol-2-yl)-2-fluorobenzyl)-1-ethyl-N-phenylpiperidine-4-carboxamide], the “HDAC6 selectivity (fold)” value amounted to 1031 fold and the pIC50 is 7.01.

Regarding `CC(C)N1CCC(C(=O)N(Cc2ccc(-c3nnc(C(F)F)o3)cc2F)c2ccccc2)CC1` [Compound 11210, N-(4-(5-(difluoromethyl)-1,3,4-oxadiazol-2-yl)-2-fluorobenzyl)-1-isopropyl-N-phenylpiperidine-4-carboxamide], the “HDAC6 selectivity (fold)” value is recorded as 418 fold and the pIC50 was 6.62.

As to `CC(=O)N1CCC(C(=O)N(Cc2ccc(-c3nnc(C(F)F)o3)cc2F)c2ccccc2)CC1` [Compound 11211, 1-acetyl-N-(4-(5-(difluoromethyl)-1,3,4-oxadiazol-2-yl)-2-fluorobenzyl)-N-phenylpiperidine-4-carboxamide], the “HDAC6 selectivity (fold)” value is given as 1351 fold and the pIC50 was 7.13.
